For series [1], the system named is Lamina I/II spinal cord neurons. Briefly: Lamina assay: current-clamp recordings on lamina I/II spinal cord neurons. Type of series: cell-based, rat. Conditions: Lamina I and II; for % Spike Change (Mean; % change from control): tonic firing neurons, current-clamp. The text has this: Male Wistar rats (P6 to P9 for voltage-clamp and P15 to P18 for current-clamp recordings) were anaesthetized through intraperitoneal injection of Inactin (Sigma). The spinal cord was then rapidly dissected out and placed in an ice-cold solution protective sucrose solution containing (in mM): 50 sucrose, 92 NaCl, 15 D-Glucose, 26 NaHCO3, 5 KCl, 1.25 NaH2PO4, 0.5 CaCl2, 7 MgSO4, 1 kynurenic acid, and bubbled with 5% CO2/95% O2. The meninges, dura, and dorsal and ventral roots were then removed from the lumbar region of the spinal cord under a dissecting microscope. The “cleaned” lumbar region of the spinal cord was glued to the vibratome stage and immediately immersed in ice cold, bubbled, sucrose solution. For current-clamp recordings, 300 to 350 μm parasagittal slices were cut to preserve the dendritic arbour of lamina I neurons, while 350 to 400 μm transverse slices were prepared for voltage-clamped […] channel recordings. Slices were allowed to recover for 1 hour at 35° C. in Ringer solution containing (in mM): 125 NaCl, 20 D-Glucose, 26 NaHCO3, 3 KCl, 1.25 NaH2PO4, 2 CaCl2, 1 MgCl2, 1 kynurenic acid, 0.1 picrotoxin, bubbled with 5% CO2/95% O2. The slice recovery chamber was then returned to room temperature (20 to 22° C.) and all recordings were performed at this temperature.
Neurons were visualized using IR-DIC optics (Zeiss Axioskop 2 FS plus, Gottingen, Germany), and neurons from lamina I and the outer layer of lamina II were selected based on their location relative to the substantia gelatinosa layer. Neurons were patch-clamped using borosilicate glass patch pipettes with resistances of 3 to 6 MΩ. Current-clamp recordings of lamina I/II neurons in the intact slice, the external recording solution was the above Ringer solution, while the internal patch pipette solution contained (in mM): 140 KGluconate, 4 NaCl, 10 HEPES, 1 EGTA, 0.5 MgCl2, 4 MgATP, 0.5 Na2GTP, adjusted to pH 7.2 with 5 M KOH and to 290 mOsm with D-Mannitol (if necessary). Only tonic firing neurons were selected for current-clamp experiments, while phasic, delayed onset and single spike neurons were discarded (22). Recordings were digitized at 50 kHz and low-pass filtered at 2.4 kHz.

For series [2], the system named is seizures induced by 6 Hz corneal stimulation in CF1 mice. Briefly: 6 Hz psychomotor seizure model of partial epilepsy. In kind it is in vivo, mouse. On the set-up: Epilepsy 6 Hz (% protected): concentration or dose not given beside the values. Conditions: 32 mA; for ED50: Mus musculus. Here is the method: Compounds were evaluated for the protection against seizures induced by a 6 Hz, 0.2 ms rectangular pulse width of 3 s duration, at a stimulus intensity of 32 mA (CC97) applied to the cornea of male CF1 mice (20-30 g) according to procedures described by Barton et al, “Pharmacological Characterization of the 6 Hz Psychomotor Seizure Model of Partial Epilepsy,” Epilepsy Res. 47(3):217-27 (2001). Seizures are characterised by the expression of one or more of the following behaviours: stun, forelimb clonus, twitching of the vibrissae and Straub-tail immediately following electrical stimulation.

For series [3], the system named is Rat SNL tactile allodynia. As to the kind of experiment: L5/L6 spinal nerve ligation (SNL) Chung pain model, tactile allodynia (von Frey). Type of series: in vivo. The text has this: The Spinal Nerve Ligation is an animal model representing peripheral nerve injury generating a neuropathic pain syndrome. In this model experimental animals develop the clinical symptoms of tactile allodynia and hyperalgesia. L5/L6 Spinal nerve ligation (SNL) injury was induced using the procedure of Kim and Chung (Kim et al., Pain 50:355-363 (1992)) in male Sprague-Dawley rats (Harlan; Indianapolis, Ind.) weighing 200 to 250 grams.
Anaesthesia was induced with 2% isofluorane in O2 at 2 L/min and maintained with 0.5% isofluorane in O2. Rats were then shaved and aseptically prepared for surgeries. A 2 cm paraspinal incision was made at the level of L4-S2. L4/L5 was exposed by removing the transverse process above the nerves with a small rongeur. The L5 spinal nerve is the larger of the two visible nerves below the transverse process and lies closest to the spine. The L6 spinal nerve is located beneath the corner of the slope bone. A home-made glass Chung rod was used to hook L5 or L6 and a pre-made slip knot of 4.0 silk suture was placed on the tip of the rod just above the nerve and pulled underneath to allow for the tight ligation. The L5 and L6 spinal nerves were tightly ligated distal to the dorsal root ganglion. The incision was closed, and the animals were allowed to recover for 5 days.
Sham control rats underwent the same operation and handling as the experimental animals, but without SNL.
Prior to initiating drug delivery, baseline behavioural testing data is obtained. At selected times after infusion of the Test or Control Article behavioural data can then be collected again.
The assessment of tactile allodynia consisted of measuring the withdrawal threshold of the paw ipsilateral to the site of nerve injury in response to probing with a series of calibrated von Frey filaments (innocuous stimuli). Animals were acclimated to the suspended wire-mesh cages for 30 min before testing. Each von Frey filament was applied perpendicularly to the plantar surface of the ligated paw of rats for 5 sec. A positive response was indicated by a sharp withdrawal of the paw. For rats, the first testing filament is 4.31. Measurements were taken before and after administration of test articles. […] The protocol was repeated until three changes in behaviour were determined (“up and down” method) (Chaplan et al., J. Neurosci. Methods 53:55-63 (1994)). The 50% paw withdrawal threshold was determined as (10^[Xf+kδ])/10,000, where Xf=the value of the last von Frey filament employed, k=Dixon value for the positive/negative pattern, and S=the logarithmic difference between stimuli. The cut-off values for rats were no less than 0.2 g and no higher than 15 g (5.18 filament); for mice no less than 0.03 g and no higher than 2.34 g (4.56 filament). A significant drop of the paw withdrawal threshold compared to the pre-treatment baseline is considered tactile allodynia. […]

Series [4] in a line: Rat Early Pharmacokinetic (EPK) study. In kind it is in vivo. To be noted: PO, 3 mg/kg, formulation PG (propylene glycol); for Tmax: male, Sprague-Dawley, blood. Here is the method: Male Sprague-Dawley rats were dosed via oral (PO) gavage in the detailed formulation. Blood samples were collected from the animals at 6 timepoints out to 4 hours post-dose. Pharmacokinetic analysis was performed on the LC-MS/MS measured concentrations for each timepoint of each compound.

The structures appear in SMILES notation.

In general, EC50 refers to the concentration giving half of the maximal effect. As usually defined, the ED50 is the dose that gives a 50% effect, or the effect in half of the subjects. As usually defined, the Tmax is the time at which the peak concentration occurs. `O=C(CN1CCNCC1=O)Nc1cc(C(F)(F)F)cc(C(F)(F)F)c1` [Compound 1, N-(3,5-bis(trifluoromethyl)phenyl)-2-(2-oxopiperazin-1-yl)acetamide]: the “% Spike Change (Mean; % change from control)” value in series [1] is −47.3%. In series [1] (Rattus norvegicus, Neuron), a half-maximal effect (EC50) was put at 482 nM. The “Epilepsy 6 Hz (% protected)” value is recorded as 75% in series [2] (0.25 hr), 100% in series [2] (0.5 hr) and 75% in series [2] (1 hr). Moreover, in series [2], the median effective dose (ED50) was determined as 128 mg/kg. Moreover, the “Rat SNL Tactile Allodynia (% Antiallodynia)” value was found to be 52% in series [3] (1 hour), 55% in series [3] (2 hours) and 37% in series [3] (4 hours). Also, the “Dose Normalized AUC” value in series [4] is reported as 1,118 nM*h. Besides, in series [4], the “Dose Normalized Cmax” value worked out at 438 nM. Also, the Tmax in series [4] amounted to 15 min.
For the compound `O=C1CN(CC(=O)Nc2cc(C(F)(F)F)cc(C(F)(F)F)c2)CCN1` [Compound 9, N-(3,5-bis(trifluoromethyl)phenyl)-2-(3-oxopiperazin-1-yl)acetamide], the “% Spike Change (Mean; % change from control)” value in series [1] is −35.5%. In addition, the “Epilepsy 6 Hz (% protected)” value in series [2] (0.25 hr) is given as 75%; in series [2] (0.5 hr), 25%; in series [2] (1 hr), 88%; in series [2] (2 hr), 75%; in series [2] (4 hr), 0%. For the same compound, the ED50 in series [2] was determined as 90 mg/kg. For the same compound, in series [3] (1 hour), the “Rat SNL Tactile Allodynia (% Antiallodynia)” value came out at 36%. In addition, the “Anti-allodynia in rat SNL tactile allodynia (in words)” value in series [3] (at 60 minutes compared to baseline and post-SNL) is “significant anti-allodynia”. In series [4], the “Dose Normalized AUC” value is 1,120 nM*h. The “Dose Normalized Cmax” value in series [4] came to 484 nM. The Tmax in series [4] amounted to 84 min.
